Measured values from patent publication US11261152B2, “Inhibitors of the N-terminal domain of the androgen receptor” (The Regents of the University of California, priority 2017, dated 2022).
Structures can show the parent of a compound that is named as a salt.

Target: T1, full length AR and AR splice variants (AR-V7, AR Δ567) (Homo sapiens, UniProt P10275)
T1 construct: endogenous in cells; host or cells: LNCaP-AR (engineered to overexpress full length AR), 22Rv1 (endogenous full length AR and AR-V7), PC3 stably expressing AR Δ567
T1 sequence (P10275 1-920): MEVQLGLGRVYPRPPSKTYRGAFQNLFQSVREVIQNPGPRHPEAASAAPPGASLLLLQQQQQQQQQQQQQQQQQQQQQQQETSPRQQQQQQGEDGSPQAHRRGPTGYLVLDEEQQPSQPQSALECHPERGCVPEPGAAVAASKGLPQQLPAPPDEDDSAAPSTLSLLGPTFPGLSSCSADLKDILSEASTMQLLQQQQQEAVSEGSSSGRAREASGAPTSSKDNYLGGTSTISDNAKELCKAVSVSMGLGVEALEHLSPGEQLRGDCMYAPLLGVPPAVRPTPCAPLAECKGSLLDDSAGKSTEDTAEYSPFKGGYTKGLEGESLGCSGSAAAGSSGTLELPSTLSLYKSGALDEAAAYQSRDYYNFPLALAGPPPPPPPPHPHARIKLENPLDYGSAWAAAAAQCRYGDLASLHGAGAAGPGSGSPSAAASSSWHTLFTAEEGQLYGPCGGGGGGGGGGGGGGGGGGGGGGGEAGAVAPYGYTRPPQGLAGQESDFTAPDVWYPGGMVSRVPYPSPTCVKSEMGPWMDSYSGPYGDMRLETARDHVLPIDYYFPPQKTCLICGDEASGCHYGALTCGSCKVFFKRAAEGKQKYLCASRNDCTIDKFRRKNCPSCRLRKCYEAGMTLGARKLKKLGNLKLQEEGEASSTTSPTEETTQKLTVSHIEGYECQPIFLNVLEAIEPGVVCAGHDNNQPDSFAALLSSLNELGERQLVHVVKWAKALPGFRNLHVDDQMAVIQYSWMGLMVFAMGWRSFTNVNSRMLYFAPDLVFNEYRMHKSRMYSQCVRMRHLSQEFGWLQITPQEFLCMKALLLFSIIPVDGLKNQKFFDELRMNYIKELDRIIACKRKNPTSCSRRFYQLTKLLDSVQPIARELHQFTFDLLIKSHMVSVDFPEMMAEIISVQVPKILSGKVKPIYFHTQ
T1 sequence (P10275 1-644 isoform P10275-3): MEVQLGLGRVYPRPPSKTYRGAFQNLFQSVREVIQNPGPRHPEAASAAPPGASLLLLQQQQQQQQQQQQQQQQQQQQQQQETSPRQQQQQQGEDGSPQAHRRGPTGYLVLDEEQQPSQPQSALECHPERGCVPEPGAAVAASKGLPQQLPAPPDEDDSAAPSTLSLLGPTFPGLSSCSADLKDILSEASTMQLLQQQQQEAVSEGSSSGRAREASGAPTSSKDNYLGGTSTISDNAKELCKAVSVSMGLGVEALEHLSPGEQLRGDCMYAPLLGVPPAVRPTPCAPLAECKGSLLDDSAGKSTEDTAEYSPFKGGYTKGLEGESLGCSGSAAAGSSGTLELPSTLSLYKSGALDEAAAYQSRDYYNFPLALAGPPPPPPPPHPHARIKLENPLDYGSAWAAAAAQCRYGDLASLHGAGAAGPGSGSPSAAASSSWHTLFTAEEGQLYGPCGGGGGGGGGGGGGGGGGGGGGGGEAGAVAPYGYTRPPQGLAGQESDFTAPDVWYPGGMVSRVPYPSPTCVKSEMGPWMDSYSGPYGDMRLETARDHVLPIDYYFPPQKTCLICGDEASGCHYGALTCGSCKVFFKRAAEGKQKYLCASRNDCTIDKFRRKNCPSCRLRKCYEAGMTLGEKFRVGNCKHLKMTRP
T1 sequence (P10275 with tags, fused parts or gaps limits assumed): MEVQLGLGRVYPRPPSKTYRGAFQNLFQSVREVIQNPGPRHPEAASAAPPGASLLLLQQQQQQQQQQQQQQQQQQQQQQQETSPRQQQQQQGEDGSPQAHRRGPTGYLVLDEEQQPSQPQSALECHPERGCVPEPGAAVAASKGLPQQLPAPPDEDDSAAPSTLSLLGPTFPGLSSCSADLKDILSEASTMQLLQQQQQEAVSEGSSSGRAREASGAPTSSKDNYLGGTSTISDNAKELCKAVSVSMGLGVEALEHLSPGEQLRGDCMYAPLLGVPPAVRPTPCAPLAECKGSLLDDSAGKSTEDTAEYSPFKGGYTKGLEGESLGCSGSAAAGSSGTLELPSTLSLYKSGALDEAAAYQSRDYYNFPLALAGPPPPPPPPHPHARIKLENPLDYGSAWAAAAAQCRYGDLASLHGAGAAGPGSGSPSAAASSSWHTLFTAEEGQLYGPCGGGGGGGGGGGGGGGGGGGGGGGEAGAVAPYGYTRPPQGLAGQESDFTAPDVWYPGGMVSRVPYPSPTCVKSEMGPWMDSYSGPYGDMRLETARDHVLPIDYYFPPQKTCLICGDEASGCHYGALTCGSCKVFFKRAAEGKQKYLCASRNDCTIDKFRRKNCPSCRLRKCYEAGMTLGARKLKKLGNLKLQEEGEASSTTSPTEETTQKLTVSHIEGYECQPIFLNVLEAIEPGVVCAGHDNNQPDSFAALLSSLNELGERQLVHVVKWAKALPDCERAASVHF
Assay: AR degradation, protein stability experiments with cycloheximide (Western blot)
Format: cell-based
Method: A) LNCaP-AR cells were exposed to the indicated compounds or vehicle (DMSO) in the presence of cycloheximide for the indicated times. Western blots were performed for the indicated proteins. B) Same as A but in 22Rv1 cells.

Q: Which “IC50 for AR Degradation” value does the source give for `C=C(CN(C)Cc1ccccc1)C(=O)/C(=C/c1ccc(Cl)cc1)c1ccccc1` [JN018, (E)-4-((Benzyl(methyl)amino)methyl)-1-(4-chlorophenyl)-2-phenylpenta-1,4-dien-3-one hydrochloride] here?
A: ~2000 nM

Q: And the “degradation of AR splice variant AR Δ567” value (stably introduced into PC3 cells)?
A: enhanced degradation
